This assay has as its system Autoxidation von Linolensäure. The experiment in a line: Antioxidant test: inhibition of hydroperoxide formation in radical-chain autoxidation of linoleic acid (after Stocker et al.), AIBN as radical starter, UV/Vis at 234 nm or HPLC. The class given is biochemical. Particulars: for IC50: Autoxidation of Linolensäure in the presence of air, b23 room temperature (37°C, 0,15 M Linolsäure, 2 mM AIBN, 6 % (v/v) Methanol), read-out: Konzentration c0,5 (Rate der Peroxidbildung auf die Hälfte reduziert). An excerpt:
Stocker et al. verwendeten zur Quantifizierung der antioxidativen Wirkung des Hämabbauproduktes Bilirubin ein einfaches Testsystem. Die essentielle Fettsäure Linolsäure, eine zweifach ungesättigte Fettsäure, ist sehr empfindlich gegenüber einer Oxidation durch freie Radikale. Derartige Oxidationen können in Form von Kettenreaktionen z.B. in Zellmembranen großflächige Schäden herbeiführen. In vitro wurde dieser "oxidative Stress" durch den Einsatz einer Azoverbindung (Radikalstarter) simuliert. Derartige Azoverbindungen bilden ständig, abhängig von der Temperatur durch Abspaltung von Stickstoff (N2) Kohlenstoffradikale, die wiederum mit den ungesättigten Bindungen der Fettsäuren reagieren können. Es bilden sich Fettsäureradikale die ihrerseits wiederum mit Sauerstoff reagieren. Das führt zur Bildung von Fettsäurehydroperoxiden, die wegen ihrer besonderen Absorptionseigenschaften in UV-Bereich (234 nm) spektroskopisch nachweisbar sind. Abhängig von der Konzentration des Radikalbildners steigt also mit der Zeit die Anzahl der Fettsäurehydroperoxidmoleküle an. Setzt man einen antioxidativ wirksamen Stoff zu, können Radikale abgefangen werden, und die Bildung der Hydroperoxide wird verlangsamt.
Das Ergebnis dieser Untersuchungen zeigt die Figur 8, in der die zeitliche Abhängigkeit der Zunahme oxidierter Linolsäure bei unterschiedlichen Konzentrationen der Antioxidantien Bilirubin bzw. NCC-1 aufgetragen ist.
Die Aktivität des natürlichen und weniger polaren Cj-YCC-2 als Antioxidans wurde in Lösung mittels Standardexperimenten, die unter anderem auch in der WO 2007/030848 beschrieben sind, getestet unter Verwendung der Autoxidation von Linolensäure in der Anwesenheit von Luft und bei Raumtemperatur. Das gelbe Tetrapyrrol Cj-YCC-2 inhibierte die Erscheinung von Hydroperoxiden aus einer Radikal-Ketten-Autoxidation von Linolensäure in der Anwesenheit von Luft (siehe Fig. 8). […]

SMILES strings stand for the structures.

The source of these data is patent publication EP2321300B1, “CHLOROPHYLL CATABOLITES” (Universität Innsbruck, priority 2008, dated 2010).

`C=CC1=C(C)C(Cc2[nH]c(C3c4[nH]c(Cc5[nH]c(C=O)c(C)c5CCO)c(C)c4C(=O)C3C(=O)OC)c(CCC(=O)O)c2C)NC1=O` (stereo not drawn) [Cj-NCC-1, reference compound]: the IC50 was around 100 µM.

With `C=CC1=C(C)/C(=C\c2[nH]c([C@@H]3c4[nH]c(Cc5[nH]c(C=O)c(C)c5CCO)c(C)c4C(=O)[C@H]3C(=O)OC)c(CCC(=O)O)c2C)NC1=O` [Cj-YCC-1, (13^2S,15R,20E) - 3',3^2-Didehydro - 4,5,10,15 - (22,24H) - hexahydro - 13^2 - methoxycarbonyl - 4,5 - seco - 4,5 - dioxo - phytoporphyrinat], the IC50 is around 10 µM. In the case of `C=CC1=C(C)/C(=C/c2[nH]c([C@@H]3c4[nH]c(Cc5[nH]c(C=O)c(C)c5CCO)c(C)c4C(=O)[C@H]3C(=O)OC)c(CCC(=O)O)c2C)NC1=O` [Cj-YCC-2, (13^2S,15R,20Z) - 3^1,3^2-Didehydro - 4,5,10,15 - (22,24H) - hexahydro - 13^2 - methoxycarbonyl - 4,5 - seco - 4,5 - dioxo - phytoporphyrinat], under “in the presence of air, Fig. 8”, the “Erscheinung von Hydroperoxiden aus einer Radikal-Ketten-Autoxidation von Linolensäure” value is recorded as “inhibierte”.
